Test systems include SK-MEL-28 melanoma; SNB-19 CNS; SR leukemia; A549 NSCLC; UACC-62 melanoma; UACC-257 melanoma; PC-3 prostate; SW-620 colon; CAKI-1 renal; TK-10 renal; RPMI-8226 leukemia; RXF 393 renal; MCF7 breast.
What all share (test): growth of human tumour cells (NCI), 48 h

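Tested at 5 concentrations; 48 h exposure; 96-well plates; endpoints linearly interpolated, else capped at highest concentration. Definition used: TGI = concentration required for complete inhibition of growth.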

As to `O=S(=O)(O)c1cc(S(=O)(=O)O)c2c(N=Nc3cccc4ccccc34)c(O)ccc2c1`, the TGI in the experiment with SK-MEL-28 melanoma, in the experiment with SNB-19 CNS, with SR leukemia, in the experiment with A549 NSCLC, with UACC-62 melanoma and with UACC-257 melanoma was over 100 µM in each case. Also, the TGI in the experiment with PC-3 prostate, in the experiment on SW-620 colon, in the experiment with CAKI-1 renal, in the experiment on TK-10 renal, in the experiment on RPMI-8226 leukemia and in the experiment with RXF 393 renal was over 100 µM each time. This compound also had a TGI in the experiment on MCF7 breast of over 100 µM.
With `CCCCCCCC/C=C\CCCCCCCCNc1ccn(C2OC(COP(=O)(O)OC3CC(n4cc(F)c(=O)[nH]c4=O)OC3CO)C(O)C2O)c(=O)n1` (stereo not given), the TGI with SK-MEL-28 melanoma is over 100 µM; in the experiment with SNB-19 CNS it was over 100 µM; in the experiment on SR leukemia, 37.7 µM; in the experiment with A549 NSCLC it was over 100 µM; with UACC-62 melanoma it was over 95 µM; with UACC-257 melanoma it was over 100 µM. The TGI in the experiment with PC-3 prostate, in the experiment on SW-620 colon, in the experiment on CAKI-1 renal, with TK-10 renal, in the experiment on RPMI-8226 leukemia and in the experiment with RXF 393 renal was over 100 µM throughout. Further, the TGI with MCF7 breast was over 100 µM.
For the compound `O=C1O/C(=C\c2ccc(O)c(Br)c2)C(c2ccc(O)cc2)=C1Cl`, the TGI in the experiment on SK-MEL-28 melanoma, with SNB-19 CNS, in the experiment with SR leukemia, in the experiment on A549 NSCLC, in the experiment on UACC-62 melanoma and with UACC-257 melanoma was over 100 µM throughout. For the same compound, the TGI was over 100 µM in the experiment with PC-3 prostate; over 100 µM in the experiment on SW-620 colon; over 100 µM with CAKI-1 renal; over 100 µM in the experiment with TK-10 renal; 34 µM in the experiment with RPMI-8226 leukemia; 84.4 µM in the experiment with RXF 393 renal. Further, the TGI in the experiment with MCF7 breast came to 49.5 µM.
For the compound `COc1cc(CC2CCc3nc(N)nc(N)c3C2)cc(OC)c1OC` (stereo not given), the TGI with SK-MEL-28 melanoma was over 100 µM; with SNB-19 CNS, over 100 µM; in the experiment on SR leukemia, over 100 µM; in the experiment on A549 NSCLC, over 100 µM; in the experiment on UACC-62 melanoma, over 100 µM; in the experiment with UACC-257 melanoma it was over 63.1 µM. For the same compound, the TGI in the experiment with PC-3 prostate was over 100 µM; in the experiment with SW-620 colon, over 100 µM; in the experiment on TK-10 renal it was over 100 µM; in the experiment on RPMI-8226 leukemia, over 68.4 µM; in the experiment on RXF 393 renal it was 11.9 µM; in the experiment on MCF7 breast, over 100 µM.
As to `C1COC2SC3=C(SC(=C4SC5=C(SCCS5)S4)S3)SC2O1` (stereo not given), the TGI with SK-MEL-28 melanoma is over 100 µM; with SNB-19 CNS it was over 100 µM; with SR leukemia, 78.3 µM; in the experiment with A549 NSCLC it was over 100 µM; in the experiment on UACC-62 melanoma it was over 100 µM; with UACC-257 melanoma, over 100 µM. Also, the TGI in the experiment on PC-3 prostate, in the experiment on SW-620 colon, in the experiment with CAKI-1 renal, with TK-10 renal, in the experiment on RXF 393 renal and with MCF7 breast was over 100 µM each time.
In the case of `COc1ccc(C2Oc3c(cccc3OC)C=C2[N+](=O)[O-])cc1OC` (stereo not given), the TGI in the experiment with SK-MEL-28 melanoma was 20.5 µM; in the experiment on SNB-19 CNS it was over 100 µM; in the experiment on SR leukemia, over 100 µM; in the experiment with A549 NSCLC, over 100 µM; in the experiment on UACC-62 melanoma, 17.9 µM; with PC-3 prostate it was 26.5 µM. Further, the TGI in the experiment on CAKI-1 renal is 38.3 µM; in the experiment with TK-10 renal, 81.8 µM; with RPMI-8226 leukemia, over 100 µM; with RXF 393 renal, 8.76 µM; in the experiment with MCF7 breast, over 100 µM.
Regarding `C=C(Cl)C(C)(Cl)CCC(Cl)C(C)(C)Cl` (stereo not given), the TGI is over 100 µM in the experiment with SK-MEL-28 melanoma; over 100 µM in the experiment on SNB-19 CNS; 61.3 µM in the experiment on SR leukemia; over 100 µM in the experiment with A549 NSCLC; over 100 µM with UACC-257 melanoma; over 100 µM in the experiment with PC-3 prostate. The TGI in the experiment with SW-620 colon is over 100 µM; in the experiment on CAKI-1 renal, over 100 µM; in the experiment on TK-10 renal it was over 100 µM; with RPMI-8226 leukemia, 48.7 µM; with RXF 393 renal it was over 100 µM; with MCF7 breast, over 100 µM.
As to `C[C@]12CC[C@@H]3c4ccc(OC(=O)c5ccccc5)cc4CC[C@H]3[C@@H]1CCC2OC(=O)c1cccc2c(=O)c3ccccc3[nH]c12` (stereo not given in full), the TGI in the experiment with SK-MEL-28 melanoma is 30.6 µM; in the experiment on SNB-19 CNS it was 80.6 µM; with SR leukemia it was over 100 µM; in the experiment on A549 NSCLC, 31.5 µM; in the experiment with UACC-62 melanoma, 31.3 µM; with UACC-257 melanoma, 36.3 µM. Also, the TGI in the experiment with PC-3 prostate was 29.8 µM; with SW-620 colon, 24.5 µM; with CAKI-1 renal, 58.9 µM; with TK-10 renal it was 39.1 µM; with RPMI-8226 leukemia, over 100 µM; in the experiment on RXF 393 renal, 44.6 µM. Further, the TGI in the experiment on MCF7 breast is 30.2 µM.
Consider `N#Cc1c(C#N)c(-c2cccc([N+](=O)[O-])c2)n(-c2ccccc2)c1N`, for which the TGI in the experiment on SNB-19 CNS, with SR leukemia, with A549 NSCLC, in the experiment on UACC-62 melanoma, in the experiment with UACC-257 melanoma and in the experiment with PC-3 prostate was over 100 µM throughout. Also, the TGI in the experiment on SW-620 colon, in the experiment on CAKI-1 renal, in the experiment on TK-10 renal, in the experiment with RPMI-8226 leukemia, with RXF 393 renal and in the experiment on MCF7 breast was over 100 µM throughout.
For `c1ccc(N/N=C2\CC(c3ccccc3)Oc3ccccc32)cc1` (stereo not given), the TGI in the experiment with SK-MEL-28 melanoma, in the experiment on SNB-19 CNS, in the experiment with SR leukemia, in the experiment with A549 NSCLC, in the experiment on UACC-62 melanoma and with UACC-257 melanoma was over 100 µM throughout. The TGI was over 100 µM with PC-3 prostate; over 100 µM in the experiment with SW-620 colon; over 100 µM with CAKI-1 renal; over 100 µM in the experiment on TK-10 renal; 75.3 µM with RXF 393 renal; over 100 µM in the experiment on MCF7 breast.
With `CCOC(=O)Cc1ccc(Nc2nc3cc(C(F)(F)F)ccc3nc2C(=O)OCC)cc1`, the TGI in the experiment with SK-MEL-28 melanoma, in the experiment with SNB-19 CNS, in the experiment on SR leukemia, with A549 NSCLC, in the experiment on UACC-62 melanoma and in the experiment with UACC-257 melanoma was over 100 µM each time. The TGI is over 100 µM with PC-3 prostate; over 100 µM in the experiment with SW-620 colon; over 100 µM in the experiment on CAKI-1 renal; over 100 µM with TK-10 renal; 51.5 µM in the experiment with RXF 393 renal; over 100 µM with MCF7 breast.

These data come from PubChem BioAssay (NCI).
